Results: patent publication US6703349B2, “Enhanced herbicide composition” (Valent BioSciences Corporation, priority 2001, dated 2004)

How the values were obtained:
Tobacco = assay: Greenhouse spray test, phytotoxicity/herbicidal effect and re-growth rating on tobacco; type: in vivo, Nicotiana tabacum (tobacco); for 8 day phytotoxicity Rating (1 = least damage, 5 = most): COC 0.25% (v/v); for 9 day phytotoxicity Rating (1 = least damage, 5 = most): COC 0.25% (v/v)
Experimental: (§1) Ultra pure water was used in preparing solutions. For active ingredients (e.g. lactofen or flumioxazin), the active ingredient was dissolved in a small amount of solvent (dimethyl sulfoxide (DMSO) or 1-methyl-2-pyrrolidone), and then water was added. Spray solutions were used as soon as possible after mixing.
(§2) COC in water was used as the control.
(§3) After spraying, plants were allowed to dry at room temperature (about 25° C.). They were then moved to the greenhouse, and plants were arranged in a randomized complete block experimental design. Plants were evaluated for phytotoxicity/herbicidal effects at 24 hours and 7 to 9 days after spraying, assessing damage according to the following scale:
(§4) 5=100% leaf area affected
(§5) Plants were rated for re-growth at 7 to 9 days after treatment according to the following scale:
(§6) 2=75% of control regrowth
(§7) 3=50% of control regrowth
(§8) All the data were subject to an analysis of variance, and the mean separations were determined with Duncan's multiple range test at p=0.05.

Pigweed = assay: Greenhouse spray test, phytotoxicity rating on pigweed; type: in vivo, Amaranthus retroflexus (red root pigweed); for 24 hour phytotoxicity Rating (1 = least damage, 5 = most): COC 0.25% (v/v); for 9 day phytotoxicity Rating (1 = least damage, 5 = most): COC 0.25% (v/v)
Experimental: as §1, §2, §3, §4, §8

Soybean = assay: Greenhouse spray test, phytotoxicity/herbicidal effect and re-growth rating on soybean; type: in vivo, Glycine max (soybean); for 24 hour phytotoxicity Rating (1 = least damage, 5 = most): COC 0.25% (v/v); for 8 day phytotoxicity Rating (1 = least damage, 5 = most): COC 0.25% (v/v)
Experimental: as §1, §2, §3, §4, §5, §6, §7, §8

Morning glory = assay: Greenhouse spray test, phytotoxicity rating on morning glory; type: in vivo; for 24 hour phytotoxicity Rating (1 = least damage, 5 = most): COC 0.25% (v/v)
Experimental: as §1, §2, §3, §4, §8

Lambsquarter = assay: Greenhouse spray test, phytotoxicity/herbicidal effect and re-growth rating on lambsquarter; type: in vivo, Chenopodium album (lambsquarter)
Experimental: as §1, §2, §3, §4, §5, §6, §7, §8

Waterhemp = assay: Greenhouse spray test, phytotoxicity/herbicidal effect and re-growth rating on waterhemp; type: in vivo, Amaranthus rudis (water hemp)
Giant Foxtail = assay: Greenhouse spray test, phytotoxicity/herbicidal effect and re-growth rating on giant foxtail; type: in vivo, Setaria faberi (giant foxtail)
Experimental: as §1, §2, §3, §4, §5, §6, §7, §8

Cocklebur = assay: Greenhouse spray test, phytotoxicity/herbicidal effect and re-growth rating on cocklebur; type: in vivo, Xanthrum strumarium (cocklebur)
Experimental: as §1, §2, §3, §4, §5, §6, §7, §8

Burley tobacco = assay: Field test, phytotoxicity (percent leaf area affected) on Burley tobacco; type: in vivo; conditions: Burley tobacco in the field; apparent 1 day after application, persisted until day 7; summary of Table 6
[1] = Table 4, 24 hour, NaSA 1.6 g/L, Cobra 0.124 mL/L, Flumioxazin […], COC […] (v/v)
[2] = Table 4, 9 day, NaSA 1.6 g/L, Cobra 0.124 mL/L, Flumioxazin […], COC […] (v/v)
[3] = Table 2, 24 hour, NaSA 1.6 g/L, Cobra 0.124 mL/L, Lactofen 0.030 g/L, COC […] (v/v)
[4] = Table 2, 8 day, NaSA 1.6 g/L, Cobra 0.124 mL/L, Lactofen 0.030 g/L, COC […] (v/v)
[5] = Table 1, 8 day, NaSA 1.6 g/L, Cobra 0.124 mL/L, COC […] (v/v)
[6] = Table 2, 8 day, NaSA 8.0 g/L, COC […] (v/v)
[7] = added to Cobra, summary of Table 1

Structure (SMILES): C#CCN1C(=O)COc2cc(F)c(N3C(=O)C4=C(CCCC4)C3=O)cc21 [Flumioxazin, flumioxazin]
- 24 hour phytotoxicity Rating (1 = least damage, 5 = most) (Tobacco; [1]): 3.7
- 9 day phytotoxicity Rating (1 = least damage, 5 = most) (Tobacco; [2]): 5.0
- 24 hour phytotoxicity Rating (1 = least damage, 5 = most) (Pigweed; [1]): 4.2
- 9 day phytotoxicity Rating (1 = least damage, 5 = most) (Pigweed; [2]): 5.0

Structure (SMILES): CCOC(=O)C(C)OC(=O)c1cc(Oc2ccc(C(F)(F)F)cc2Cl)ccc1[N+](=O)[O-] (centres unmarked) [Lactofen, lactofen]
- 24 hour phytotoxicity Rating (1 = least damage, 5 = most) (Tobacco; [3]): 3.1
- 8 day new growth rating (1 = healthy new growth, 5 = no new growth) (Tobacco; [4]): 5.0
- 8 day phytotoxicity Rating (1 = least damage, 5 = most) (Tobacco; [4]): 4.2
- 24 hour phytotoxicity Rating (1 = least damage, 5 = most) (Soybean; [3]): 2.4
- 8 day new growth rating (1 = healthy new growth, 5 = no new growth) (Soybean; [4]): 2.6
- 8 day phytotoxicity Rating (1 = least damage, 5 = most) (Soybean; [4]): 2.7
- 24 hour phytotoxicity Rating (1 = least damage, 5 = most) (Morning glory; Table 3, 24 hour, NaSA 1.6 g/L, Cobra 0.124 mL/L, Lactofen 0.030 g/L, COC […] (v/v)): 3.3

Structure (SMILES): O=C([O-])c1ccccc1O.[Na+] [NaSA, sodium salicylate]
- 8 day new growth rating (1 = healthy new growth, 5 = no new growth) (Tobacco; [5]): 1.0
- 8 day new growth rating (1 = healthy new growth, 5 = no new growth) (Tobacco; [4]): 1.2
- 8 day new growth rating (1 = healthy new growth, 5 = no new growth) (Tobacco; [6]): 4.5
- Synergism of Cobra activity by addition of salicylate (in words) (Tobacco; [7]): synergized
- Effect of salicylate on flumioxazin activity (in words) (Tobacco; added to flumioxazin, summary of Table 4): increase flumioxazin activity
- Effect of salicylate on lactofen activity (in words) (Tobacco; added to lactofen, summary of Table 2): increase lactofen activity
- 8 day new growth rating (1 = healthy new growth, 5 = no new growth) (Lambsquarter; [5]): 1.0
- Synergism of Cobra activity by addition of salicylate (in words) (Lambsquarter; [7]): synergized
- 8 day new growth rating (1 = healthy new growth, 5 = no new growth) (Soybean; [5]): 1.2
- 8 day new growth rating (1 = healthy new growth, 5 = no new growth) (Soybean; [4]): 2.0
- 8 day new growth rating (1 = healthy new growth, 5 = no new growth) (Soybean; [6]): 4.2
- Synergism of Cobra activity by addition of salicylate (in words) (Soybean; [7]): not
- Safening: effect of salicylate on herbicide-induced damage (in words) (Soybean; summary of Table 1): decrease and delay herbicide-induced damage
- 8 day new growth rating (1 = healthy new growth, 5 = no new growth) (Waterhemp; [5]): 1.0
- Synergism of Cobra activity by addition of salicylate (in words) (Waterhemp; [7]): not
- 8 day new growth rating (1 = healthy new growth, 5 = no new growth) (Giant Foxtail; [5]): 1.0
- Synergism of Cobra activity by addition of salicylate (in words) (Giant Foxtail; [7]): not
- 8 day new growth rating (1 = healthy new growth, 5 = no new growth) (Cocklebur; [5]): 1.0
- Synergism of Cobra activity by addition of salicylate (in words) (Cocklebur; [7]): not
- Effect of salicylate on herbicidal activity of Cobra (in words) (Morning glory; added to Cobra, summary of Table 3): increases the herbicidal activity
- Effect of salicylate on herbicidal activity of lactofen (in words) (Morning glory; added to lactofen, summary of Table 3): increases the herbicidal activity
- Effect of salicylate on Cobra herbicidal activity (in words) (Pigweed; added to Cobra, effect not statistically significant, summary of Table 4): increased
- Effect of salicylate on flumioxazin herbicidal activity (in words) (Pigweed; added to flumioxazin, effect not statistically significant, summary of Table 4): increased
- Effect of addition of salicylate on Phoenix (lactofen) herbicidal activity (in words) (Burley tobacco): increased
